The results in this text go back to ChEMBL document CHEMBL4680157, “Design, synthesis and biological evaluation of novel TRβ selective agonists sustained by ADME-toxicity analysis” (Eur J Med Chem, 2020).

The target in data set [1] is T1, Thyroid hormone receptor alpha (Homo sapiens, UniProt P10827).
T1 sequence (P10827 whole entry): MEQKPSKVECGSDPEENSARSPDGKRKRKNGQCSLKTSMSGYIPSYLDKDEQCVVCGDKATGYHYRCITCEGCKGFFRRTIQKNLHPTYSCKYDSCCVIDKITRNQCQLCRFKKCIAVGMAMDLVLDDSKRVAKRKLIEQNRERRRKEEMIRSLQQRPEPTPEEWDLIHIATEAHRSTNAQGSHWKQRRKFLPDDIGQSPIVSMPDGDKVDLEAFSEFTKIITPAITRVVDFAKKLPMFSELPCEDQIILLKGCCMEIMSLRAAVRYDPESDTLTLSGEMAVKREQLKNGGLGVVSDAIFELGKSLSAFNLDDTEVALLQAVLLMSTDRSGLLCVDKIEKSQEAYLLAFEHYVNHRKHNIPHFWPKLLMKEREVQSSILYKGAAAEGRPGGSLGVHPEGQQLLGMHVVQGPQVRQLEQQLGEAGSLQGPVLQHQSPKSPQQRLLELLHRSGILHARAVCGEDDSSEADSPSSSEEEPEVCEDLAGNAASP
In words: Agonist activity at TRalpha (unknown origin) by Lanthascreen TR-FRET assay. On the technique in general: Time-resolved FRET reads energy transfer from a long-lived donor to a nearby acceptor.

Data set [2] deals with T2, Thyroid hormone receptor beta (Homo sapiens, UniProt P10828).
T2 sequence (P10828 whole entry): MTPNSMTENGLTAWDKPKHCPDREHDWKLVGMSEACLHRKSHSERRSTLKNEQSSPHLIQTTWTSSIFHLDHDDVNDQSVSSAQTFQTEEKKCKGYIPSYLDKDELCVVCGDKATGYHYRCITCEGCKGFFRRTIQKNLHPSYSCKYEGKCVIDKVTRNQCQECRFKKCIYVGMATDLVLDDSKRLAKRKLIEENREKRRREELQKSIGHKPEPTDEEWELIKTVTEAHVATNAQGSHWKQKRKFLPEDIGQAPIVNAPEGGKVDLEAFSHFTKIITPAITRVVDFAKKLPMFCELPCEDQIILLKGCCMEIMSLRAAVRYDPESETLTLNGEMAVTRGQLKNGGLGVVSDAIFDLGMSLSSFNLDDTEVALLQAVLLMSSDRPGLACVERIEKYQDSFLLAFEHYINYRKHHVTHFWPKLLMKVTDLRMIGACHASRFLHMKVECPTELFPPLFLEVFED
In words: Agonist activity at TRbeta (unknown origin) by Lanthascreen TR-FRET assay.

Data set [3] concerns the target T3, TRalpha (thyroid hormone receptor alpha) (Homo sapiens, UniProt P10827).
T3 sequence (P10827 whole entry): T1 sequence (P10827 whole entry)
Description: Agonist activity at TRalpha (unknown origin) at 1 uM by Lanthascreen TR-FRET assay relative to control. The following applies: read-out: Activity.

Data set [4] is described as follows: Toxicity in F344 rat assessed as effect on serum AST/GOT level at 50 ug per 100 g of body weight, ig administered daily for 3 days (reference value: 153 +/- 11 U/L). The following applies: in vivo, po, 72 h, dose 50 µg, time 3 day.
Data set [5] can be described thus: Toxicity in F344 rat assessed as effect on serum ALT/GPT level at 75 ug per 100 g body weight, ip administered daily for 3 days (reference value: 46 +/- 4 U/L). The following applies: in vivo, 72 h, dose 75 µg, time 3 day. The data set is classed as organism-based.
Data set [6] is described as follows: Toxicity in F344 rat assessed as effect on serum bilirubin level at 100 ug per 100 g body weight, ig administered daily for 3 days (reference value: 1.4 +/- 0.2 mg/dl). The following applies: in vivo, po, 72 h, dose 100 µg, time 3 day.
The nature of data set [7]: Toxicity in F344 rat assessed as effect on serum glucose level at 50 ug per 100 g body weight, ig administered daily for 3 days (reference value: 151 +/- 13.5 mg/dl). The following applies: in vivo, po, 72 h, dose 50 µg, time 3 day.
Data set [8] can be described thus: Toxicity in F344 rat assessed as effect on serum glucose level at 100 ug per 100 g body weight, ig administered daily for 3 days (reference value: 151 +/- 13.5 mg/dl). The following applies: in vivo, po, 72 h, dose 100 µg, time 3 day.
The nature of data set [9]: Toxicity in F344 rat assessed as effect on serum triglycerides level at 100 ug per 100 g body weight, ig administered daily for 3 days (reference value: 86.8 +/- 10.4 mg/dl). The following applies: in vivo, po, 72 h, dose 100 µg, time 3 day.

For the compound `Cc1cc(OCC(=O)O)cc(C)c1Cc1ccc(O)cc1`, the values for the EC50 in data set [1] and in [2] were 54 nM and 32 nM, respectively.
For `Cc1cc(OCC(=O)O)cc(C)c1Cc1ccc(N)c(C(C)C)c1`, in data set [3], the activity at 1 µM amounted to 30%. For the same compound, the Activity in data set [4] was 134 U/L; in data set [5], 36 U/L; in data set [6], 1 mg/dL; in data set [7], 136 mg/dL; in data set [8], 166 mg/dL; in [9], 67.8 mg/dL.
As for `CC(=O)Nc1ccc(Cc2c(C)cc(OCC(=O)O)cc2C)cc1C(C)C`, the Activity in data set [4] is 141 U/L; in [5], 38 U/L; in data set [6] it was 1.1 mg/dL; in data set [7], 129 mg/dL; in data set [8], 164 mg/dL; in data set [9] it was 62.8 mg/dL.

A word on the EC50: it is the concentration needed to bring the measured effect to its halfway point. A lower EC50 goes with higher potency in that assay.
